# Tests used:
# Plasmodium berghei [1] = assay: Antimalarial activity against GFP-transfected Plasmodium berghei strain ANKA infected in NMRI mouse assessed as increase in mean survival time at 50 mg/kg, po administered as single dose (reference value: 5 days )
# [2] = Metabolic stability in rat liver microsomes assessed as intrinsic clearance per mg protein after 60 mins by LC-MS analysis; assay type: ADME, Microsome
# Plasma [3] = assay: Plasma protein binding in mouse assessed as 1-(2-Ethylaminoethylamino)-3-[4-(trifluoromethyl)phenyl]-pyrido[1,2-a]benzimidazole-4-carbonitrile at 5 mg/kg, iv after 48 hrs by LC-MS analysis; assay type: ADME, organism-based; set-up: dose 5 mg/kg, route intravenous; conditions: in vivo
# Rattus norvegicus [4] = assay: Apparent half life in fasted Sprague-Dawley rat assessed as 1-(2-Ethylaminoethylamino)-3-[4-(trifluoromethyl)phenyl]- pyrido[1,2-a]benzimidazole-4-carbonitrile level at 5 mg/kg, iv after 48 hrs by LC-MS analysis; assay type: ADME, organism-based; set-up: dose 5 mg/kg, route intravenous; conditions: in vivo
# Plasmodium berghei [5] = assay: Antimalarial activity against GFP-transfected Plasmodium berghei strain ANKA infected in NMRI mouse assessed as increase in median survival time at 6 mg/kg, po administered as multiple dose for 4 days measured 24 hrs after last treatment (reference value: 6.5 days ); assay type: functional
# Rattus norvegicus [6] = assay: AUC (0 to tlast) in fasted Sprague-Dawley rat assessed as 1-(2-Ethylaminoethylamino)-3-[4-(trifluoromethyl)phenyl]- pyrido[1,2-a]benzimidazole-4-carbonitrile level at 5 mg/kg, iv after 48 hrs by LC-MS analysis; assay type: ADME, organism-based, Plasma; set-up: time < 48 hr, dose 5 mg/kg, route intravenous; conditions: in vivo
# Plasmodium berghei [7] = assay: Antimalarial activity against GFP-transfected Plasmodium berghei strain ANKA infected in NMRI mouse assessed as reduction in parasitemia at 3 mg/kg, po administered as multiple dose for 4 days measured 24 hrs after last treatment; assay type: functional; set-up: scale not given: the % may be the effect or the level left
# Plasmodium berghei [8] = assay: Antimalarial activity against GFP-transfected Plasmodium berghei strain ANKA infected in NMRI mouse assessed as reduction in parasitemia at 12.5 mg/kg, po administered as multiple dose for 4 days measured 24 hrs after last treatment; assay type: functional; set-up: scale not given: the % may be the effect or the level left
# Plasmodium berghei [9] = assay: Antimalarial activity against GFP-transfected Plasmodium berghei strain ANKA infected in NMRI mouse assessed as reduction in parasitemia at 50 mg/kg, po administered as single dose measured on day 5 by FACS analysis; assay type: functional; set-up: scale not given: the % may be the effect or the level left
# Plasmodium berghei [10] = assay: Antimalarial activity against GFP-transfected Plasmodium berghei strain ANKA infected in NMRI mouse assessed as increase in mean survival time at 25 mg/kg, po administered as single dose (reference value: 5 days )
# [11] = Metabolic stability in mouse liver microsomes assessed as intrinsic clearance per mg protein after 60 mins by LC-MS analysis; assay type: ADME, Microsome
# Plasmodium berghei [12] = assay: Antimalarial activity against GFP-transfected Plasmodium berghei strain ANKA infected in NMRI mouse assessed as reduction in parasitemia at 50 mg/kg, po administered as multiple dose for 4 days measured 24 hrs after last treatment; assay type: functional; set-up: scale not given: the % may be the effect or the level left
# Plasmodium berghei [13] = assay: Antimalarial activity against GFP-transfected Plasmodium berghei strain ANKA infected in NMRI mouse assessed as reduction in parasitemia at 25 mg/kg, po administered as single dose for 4 days measured 24 hrs after last treatment; assay type: functional; set-up: scale not given: the % may be the effect or the level left
# Plasmodium berghei [14] = assay: Antimalarial activity against GFP-transfected Plasmodium berghei strain ANKA infected in NMRI mouse assessed as reduction in parasitemia at 25 mg/kg, po administered as single dose measured on day 5 by FACS analysis; assay type: functional; set-up: scale not given: the % may be the effect or the level left
# Plasmodium berghei [15] = assay: Antimalarial activity against GFP-transfected Plasmodium berghei strain ANKA infected in NMRI mouse assessed as increase in median survival time at 25 mg/kg, po administered as multiple dose for 4 days measured 24 hrs after last treatment (reference value: 6.5 days ); assay type: functional
# Plasmodium berghei [16] = assay: Antimalarial activity against GFP-transfected Plasmodium berghei strain ANKA infected in NMRI mouse assessed as increase in median survival time at 50 mg/kg, po administered as multiple dose for 4 days measured 24 hrs after last treatment (reference value: 6.5 days ); assay type: functional
# [17] = Metabolic stability in mouse liver microsomes assessed as degradation half life after 60 mins by LC-MS analysis; assay type: ADME, Microsome
# Rattus norvegicus [18] = assay: Tmax in fasted Sprague-Dawley rat assessed as 1-(2-Ethylaminoethylamino)-3-[4-(trifluoromethyl)phenyl]- pyrido[1,2-a]benzimidazole-4-carbonitrile level at 20 mg/kg, po after 48 hrs by LC-MS analysis; assay type: ADME, organism-based; set-up: dose 20 mg/kg, route oral; conditions: in vivo
# Plasma [19] = assay: Plasma protein binding in human assessed as 1-(2-Ethylaminoethylamino)-3-[4-(trifluoromethyl)phenyl]-pyrido[1,2-a]benzimidazole-4-carbonitrile at 5 mg/kg, iv after 48 hrs by LC-MS analysis; assay type: ADME, organism-based; set-up: dose 5 mg/kg, route intravenous; conditions: in vivo
# [20] = Metabolic stability in rat liver microsomes assessed as degradation half life after 60 mins by LC-MS analysis; assay type: ADME, Microsome
# Rattus norvegicus [21] = assay: Drug excretion in fasted Sprague-Dawley rat urine assessed as 1-(2-Ethylaminoethylamino)-3-[4-(trifluoromethyl)phenyl]- pyrido[1,2-a]benzimidazole-4-carbonitrile level at 5 mg/kg, iv after 48 hrs by LC-MS analysis; assay type: ADME, organism-based; set-up: dose 5 mg/kg, route intravenous; conditions: in vivo
# Plasmodium berghei [22] = assay: Antimalarial activity against GFP-transfected Plasmodium berghei strain ANKA infected in NMRI mouse assessed as reduction in parasitemia at 50 mg/kg, po administered as single dose measured on day 3 by FACS analysis; assay type: functional; set-up: scale not given: the % may be the effect or the level left
# Rattus norvegicus [23] = assay: Cmax in fasted Sprague-Dawley rat assessed as 1-(2-Ethylaminoethylamino)-3-[4-(trifluoromethyl)phenyl]- pyrido[1,2-a]benzimidazole-4-carbonitrile level at 20 mg/kg, po after 48 hrs by LC-MS analysis; assay type: ADME, organism-based; set-up: dose 20 mg/kg, route oral; conditions: in vivo
# Rattus norvegicus [24] = assay: Apparent volume of distribution in fasted Sprague-Dawley rat plasma assessed as 1-(2-Ethylaminoethylamino)-3-[4-(trifluoromethyl)phenyl]- pyrido[1,2-a]benzimidazole-4-carbonitrile level at 5 mg/kg, iv after 48 hrs by LC-MS analysis; conditions: in vivo
# Plasmodium berghei [25] = assay: Antimalarial activity against GFP-transfected Plasmodium berghei strain ANKA infected in NMRI mouse assessed as reduction in parasitemia at 50 mg/kg, po administered as single dose measured on day 4 by FACS analysis; assay type: functional; set-up: scale not given: the % may be the effect or the level left
# [26] = Metabolic stability in human liver microsomes assessed as degradation half life after 60 mins by LC-MS analysis; assay type: ADME, Microsome
# Plasmodium berghei [27] = assay: Antimalarial activity against GFP-transfected Plasmodium berghei strain ANKA infected in NMRI mouse assessed as increase in median survival time at 3 mg/kg, po administered as single dose for 4 days measured 24 hrs after last treatment (reference value: 6.5 days ); assay type: functional
# Plasmodium berghei [28] = assay: Antimalarial activity against GFP-transfected Plasmodium berghei strain ANKA infected in NMRI mouse assessed as reduction in parasitemia at 25 mg/kg, po administered as single dose measured on day 3 by FACS analysis; assay type: functional; set-up: scale not given: the % may be the effect or the level left
# Plasmodium berghei [29] = assay: Antimalarial activity against GFP-transfected Plasmodium berghei strain ANKA infected in NMRI mouse assessed as reduction in parasitemia at 50 mg/kg, po administered as single dose measured on day 2 by FACS analysis; assay type: functional; set-up: scale not given: the % may be the effect or the level left
# Plasmodium berghei [30] = assay: Antimalarial activity against GFP-transfected Plasmodium berghei strain ANKA infected in NMRI mouse assessed as increase in median survival time at 12.5 mg/kg, po administered as multiple dose for 4 days measured 24 hrs after last treatment (reference value: 6.5 days ); assay type: functional
# Rattus norvegicus [31] = assay: Drug excretion in fasted Sprague-Dawley rat urine assessed as 1-(2-Ethylaminoethylamino)-3-[4-(trifluoromethyl)phenyl]- pyrido[1,2-a]benzimidazole-4-carbonitrile level at 20 mg/kg, po after 48 hrs by LC-MS analysis; assay type: ADME, organism-based; set-up: dose 20 mg/kg, route oral; conditions: in vivo
# [32] = Metabolic stability in human liver microsomes assessed as intrinsic clearance per mg protein after 60 mins by LC-MS analysis; assay type: ADME, Microsome
# Plasmodium berghei [33] = assay: Antimalarial activity against GFP-transfected Plasmodium berghei strain ANKA infected in NMRI mouse assessed as reduction in parasitemia at 25 mg/kg, po administered as single dose measured on day 4 by FACS analysis; assay type: functional; set-up: scale not given: the % may be the effect or the level left
# Rattus norvegicus [34] = assay: AUC (0 to tlast) in fasted Sprague-Dawley rat assessed as 1-(2-Ethylaminoethylamino)-3-[4-(trifluoromethyl)phenyl]- pyrido[1,2-a]benzimidazole-4-carbonitrile level at 20 mg/kg, po after 48 hrs by LC-MS analysis; assay type: ADME, organism-based, Plasma; set-up: time < 48 hr, dose 20 mg/kg, route oral; conditions: in vivo
# Plasmodium berghei [35] = assay: Antimalarial activity against GFP-transfected Plasmodium berghei strain ANKA infected in NMRI mouse assessed as reduction in parasitemia at 6 mg/kg, po administered as single dose for 4 days measured 24 hrs after last treatment; assay type: functional; set-up: scale not given: the % may be the effect or the level left
# Plasmodium berghei [36] = assay: Antimalarial activity against GFP-transfected Plasmodium berghei strain ANKA infected in NMRI mouse assessed as reduction in parasitemia at 25 mg/kg, po administered as single dose measured on day 2 by FACS analysis; assay type: functional; set-up: scale not given: the % may be the effect or the level left
smiles,measurement,setting,value
CCNCCNc1cc(-c2ccc(C(F)(F)F)cc2)c(C#N)c2nc3ccccc3n12.Cl.Cl,MSD,Plasmodium berghei [1],12.7 days
same,microsomal CLint,[2],6.1 µL/min/mg
same,PPB,Plasma [3],95.3%
same,t1/2(app),Rattus norvegicus [4],16.3 h
same,Activity,Plasmodium berghei [5],7 days
same,AUClast,Rattus norvegicus [6],1000 µM·min
same,Activity,Plasmodium berghei [7],0%
same,Activity,Plasmodium berghei [8],80.73%
same,Activity,Plasmodium berghei [9],79.79%
same,MSD,Plasmodium berghei [10],13.3 days
same,microsomal CLint,[11],5.4 µL/min/mg
same,Activity,Plasmodium berghei [12],95.56%
same,Activity,Plasmodium berghei [13],95.72%
same,Activity,Plasmodium berghei [14],68.92%
same,Activity,Plasmodium berghei [15],14.3 days
same,Activity,Plasmodium berghei [16],14 days
same,half-life,[17],321 min
same,Tmax,Rattus norvegicus [18],960 min
same,PPB,Plasma [19],98.3%
same,half-life,[20],284 min
same,Activity,Rattus norvegicus [21],1.13%
same,Activity,Plasmodium berghei [22],50.24%
same,Cmax,Rattus norvegicus [23],950 nM
same,Vz,Rattus norvegicus [24],7.5 L/kg
same,Activity,Plasmodium berghei [25],71.22%
same,half-life,[26],137 min
same,MSD,Plasmodium berghei [27],4 days
same,Activity,Plasmodium berghei [28],55.45%
same,Activity,Plasmodium berghei [29],30.78%
same,Activity,Plasmodium berghei [30],14 days
same,Activity,Rattus norvegicus [31],0.21%
same,microsomal CLint,[32],12.7 µL/min/mg
same,Activity,Plasmodium berghei [33],62.25%
same,AUClast,Rattus norvegicus [34],2076 µM·min
same,Activity,Plasmodium berghei [35],38.35%
same,Activity,Plasmodium berghei [36],23.51%

# — ChEMBL document CHEMBL1799932, “Antimalarial pyrido[1,2-a]benzimidazoles” (J Med Chem, 2011)
